Measurements reported in patent US20260053811A1, “METHODS OF TREATING HYPERTENSION IN OBESE SUBJECTS” (Mineralys Therapeutics, Inc., priority 2022, published 2026).

Tested on: serum aldosterone
Experiment: Serum aldosterone (pharmacodynamic response)
Type: in vivo, human
Details: for Reduction in median serum aldosterone compared to baseline: week 4, low renin subjects (Part-1); for Aldosterone levels, change relative to baseline, range across active arms / Aldosterone, Mean (SD) Observed / Aldosterone, Mean (SD) Percent Change from Baseline: Part 1; for Aldosterone, Mean Observed / Aldosterone, Mean Percent Change from Baseline: Part 2
Source text: PK/PD Analysis Set includes all subjects in the SAF who have sufficient data available for the analysis of pharmacokinetic and pharmacodynamic measurements. In the analyses based on PKPD, subjects will be analyzed according to the actual treatment received.

Question: `CC(=O)N[C@H]1CC[C@H](NC(=O)CN2CCN(c3nncc(-c4ccc(C)cc4)n3)CC2)CC1` [Compound A HBr] was tested. Which “Reduction in median serum aldosterone compared to baseline” value (shortened to “Reduction in median serum aldosterone”) (25 mg BID) did it give?
Answer: Its value is 9.6%.

Question: What about the “Reduction in median serum aldosterone” value (50 mg QD) of the same molecule?
Answer: Its value is 65.2%.

Question: What about the “Reduction in median serum aldosterone” value (100 mg QD) of the same molecule?
Answer: Its value is 70.0%.

Question: What about the “Aldosterone levels, change relative to baseline, range across active arms” value (Week 4) of the same molecule?
Answer: The value was −40.1% to 7.4%.

Question: What about the “Aldosterone levels, change relative to baseline, range across active arms” value (Week 12) of the same molecule?
Answer: The value was −26.6% to 15.9%.

Question: And the “Aldosterone, Mean (SD) Observed” value (Wk 4, 12.5 mg BID)?
Answer: Its value is 4.447 (3.681) ng/dL.

Question: And the “Aldosterone, Mean (SD) Percent Change from Baseline” value (Wk 4, 12.5 mg BID)?
Answer: Its value is −37.86 (35.66) %.

Question: What about the “Aldosterone, Mean (SD) Observed” value (Wk 4, 12.5 mg QD) of the same molecule?
Answer: Its value is 6.132 (4.606) ng/dL.

Question: And the “Aldosterone, Mean (SD) Percent Change from Baseline” value (Wk 4, 12.5 mg QD)?
Answer: Its value is 7.39 (91.87) %.

Question: And the “Aldosterone, Mean (SD) Observed” value (Wk 4, 25 mg BID)?
Answer: The value was 3.192 (3.274) ng/dL.

Question: What about the “Aldosterone, Mean (SD) Percent Change from Baseline” value (Wk 4, 25 mg BID) of the same molecule?
Answer: Its value is 1.66 (233.60) %.

Question: And the “Aldosterone, Mean (SD) Observed” value (Wk 4, 50 mg QD)?
Answer: The value was 3.923 (5.283) ng/dL.

Question: And the “Aldosterone, Mean (SD) Percent Change from Baseline” value (Wk 4, 50 mg QD)?
Answer: The value was −40.06 (70.25) %.

Question: What about the “Aldosterone, Mean (SD) Observed” value (Wk 4, 100 mg QD) of the same molecule?
Answer: Its value is 4.000 (4.252) ng/dL.

Question: What about the “Aldosterone, Mean (SD) Percent Change from Baseline” value (Wk 4, 100 mg QD) of the same molecule?
Answer: Its value is −32.18 (75.13) %.

Question: And the “Aldosterone, Mean (SD) Observed” value (Wk 12, 12.5 mg BID)?
Answer: The value was 6.765 (4.085) ng/dL.

Question: And the “Aldosterone, Mean (SD) Percent Change from Baseline” value (Wk 12, 12.5 mg BID)?
Answer: The value was 1.97 (66.85) %.

Question: What about the “Aldosterone, Mean (SD) Observed” value (Wk 12, 12.5 mg QD) of the same molecule?
Answer: Its value is 6.833 (4.743) ng/dL.

Question: And the “Aldosterone, Mean (SD) Percent Change from Baseline” value (Wk 12, 12.5 mg QD)?
Answer: The value was 15.91 (67.68) %.

Question: And the “Aldosterone, Mean (SD) Observed” value (Wk 12, 25 mg BID)?
Answer: Its value is 4.983 (3.432) ng/dL.

Question: And the “Aldosterone, Mean (SD) Percent Change from Baseline” value (Wk 12, 25 mg BID)?
Answer: The value was −10.10 (66.83) %.

Question: And the “Aldosterone, Mean (SD) Observed” value (Wk 12, 50 mg QD)?
Answer: The value was 5.385 (4.087) ng/dL.

Question: And the “Aldosterone, Mean (SD) Percent Change from Baseline” value (Wk 12, 50 mg QD)?
Answer: The value was −3.75 (56.02) %.

Question: What about the “Aldosterone, Mean (SD) Observed” value (Wk 12, 100 mg QD) of the same molecule?
Answer: Its value is 4.563 (2.868) ng/dL.

Question: What about the “Aldosterone, Mean (SD) Percent Change from Baseline” value (Wk 12, 100 mg QD) of the same molecule?
Answer: The value was −26.56 (37.55) %.

Question: And the “Aldosterone, Mean Observed” value (Wk 4, 100 mg QD)?
Answer: Its value is 5.060 ng/dL.

Question: What about the “Aldosterone, Mean Percent Change from Baseline” value (Wk 4, 100 mg QD) of the same molecule?
Answer: Its value is −6.05%.

Question: And the “Aldosterone, Mean Observed” value (Wk 10, 100 mg QD)?
Answer: Its value is 4.929 ng/dL.

Question: And the “Aldosterone, Mean Percent Change from Baseline” value (Wk 10, 100 mg QD)?
Answer: Its value is −4.06%.

Question: And the “Serum aldosterone levels, pharmacodynamic response” value (across doses)?
Answer: Its value is “dose-dependent reduction in serum aldosterone levels”.
